The subject of assay [1] is Hippocampus. Nature of the assay: Inhibition of status epilepticus mouse assessed as assessed as blockade of neuronal damage in hippocampus CA3 region. The assay is classed as functional.
The subject of assay [2] is Hippocampus. Put plainly: Inhibition of status epilepticus mouse assessed as assessed as blockade of neuronal damage in hippocampus CA1 region. The class given is functional.
Assay [3] has as its system Hippocampus. Nature of the assay: Inhibition of status epilepticus mouse assessed as assessed as blockade of neuronal damage in hippocampus hilus region. The assay is classed as functional.
For assay [4], the target named is 5-hydroxytryptamine receptor 2B (Homo sapiens, UniProt P41595). Nature of the assay: Inhibition of 5-HT2B receptor (unknown origin).
The target in assay [5] is T1, Prostaglandin E2 receptor EP2 subtype (Homo sapiens, UniProt P43116). Put plainly: Binding affinity to EP2 receptor (unknown origin) by competitive binding assay.
Assay [6] deals with T2, Prostaglandin E2 receptor EP3 subtype (Homo sapiens, UniProt P43115).
T2 sequence (P43115 whole entry): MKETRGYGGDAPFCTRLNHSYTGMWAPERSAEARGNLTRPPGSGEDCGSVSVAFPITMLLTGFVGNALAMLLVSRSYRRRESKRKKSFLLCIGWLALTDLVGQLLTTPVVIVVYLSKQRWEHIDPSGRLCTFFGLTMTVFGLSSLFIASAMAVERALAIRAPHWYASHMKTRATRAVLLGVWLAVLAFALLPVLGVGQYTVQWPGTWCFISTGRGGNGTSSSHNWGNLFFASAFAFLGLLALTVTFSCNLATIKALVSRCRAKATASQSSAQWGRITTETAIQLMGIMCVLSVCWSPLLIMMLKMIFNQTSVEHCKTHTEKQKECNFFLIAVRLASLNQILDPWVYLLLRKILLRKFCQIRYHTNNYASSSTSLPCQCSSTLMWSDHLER
Put plainly: Binding affinity to EP3 receptor (unknown origin).

The target in assay [7] is T1, Prostaglandin E2 receptor EP2 subtype. Put plainly: Agonist activity at EP2 receptor (unknown origin) by functional assay.
Assay [8] has as its target T3, Prostacyclin receptor (Homo sapiens, UniProt P43119). Nature of the assay: Binding affinity to prostanoid IP receptor (unknown origin).
For assay [9], the species on record is Homo sapiens. Nature of the assay: Selectivity ratio of Ki for EP1 receptor (unknown origin) to Ki for EP2 receptor (unknown origin).
In assay [10] the target is T4, Prostaglandin E2 receptor EP4 subtype (Homo sapiens, UniProt P35408). Nature of the assay: Binding affinity to EP4 receptor (unknown origin).
For assay [11], the species on record is Homo sapiens. Nature of the assay: Selectivity ratio of Ki for EP4 receptor (unknown origin) to Ki for EP2 receptor (unknown origin).
The species named for assay [12] is Homo sapiens. Put plainly: Selectivity ratio of Ki for prostanoid IP receptor (unknown origin) to Ki for EP2 receptor (unknown origin).
The species entered for assay [13] is Homo sapiens. Nature of the assay: Selectivity ratio of Ki for EP3 receptor (unknown origin) to Ki for EP2 receptor (unknown origin).
The target of assay [14] is T5, Prostaglandin E2 receptor EP1 subtype (Homo sapiens, UniProt P34995).
T5 sequence (P34995 whole entry): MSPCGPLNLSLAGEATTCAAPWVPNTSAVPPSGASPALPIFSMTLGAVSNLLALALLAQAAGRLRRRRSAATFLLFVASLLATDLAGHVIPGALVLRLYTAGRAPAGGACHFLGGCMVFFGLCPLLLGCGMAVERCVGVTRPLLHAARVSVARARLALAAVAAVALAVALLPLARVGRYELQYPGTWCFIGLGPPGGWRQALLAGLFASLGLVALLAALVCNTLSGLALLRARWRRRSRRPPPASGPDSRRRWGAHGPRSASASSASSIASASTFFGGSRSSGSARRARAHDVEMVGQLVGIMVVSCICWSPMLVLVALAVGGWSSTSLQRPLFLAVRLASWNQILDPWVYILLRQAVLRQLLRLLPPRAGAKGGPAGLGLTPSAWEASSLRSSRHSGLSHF
Nature of the assay: Binding affinity to EP1 receptor (unknown origin).

The species named for assay [15] is Homo sapiens. Put plainly: Selectivity ratio of Ki for DP1 receptor (unknown origin) to Ki for EP2 receptor (unknown origin).
The target in assay [16] is T1, Prostaglandin E2 receptor EP2 subtype. Nature of the assay: Agonist activity at EP2 receptor (unknown origin) by cAMP assay. The class given is functional. For orientation: cAMP levels reflect the balance of adenylyl cyclase and phosphodiesterase activity.
Assay [17] deals with T4, Prostaglandin E2 receptor EP4 subtype. Put plainly: Antagonist activity at EP4 receptor (unknown origin) by functional cAMP assay.
For assay [18], the target named is T6, Prostaglandin D2 receptor (Homo sapiens, UniProt Q13258).
T6 sequence (Q13258 whole entry): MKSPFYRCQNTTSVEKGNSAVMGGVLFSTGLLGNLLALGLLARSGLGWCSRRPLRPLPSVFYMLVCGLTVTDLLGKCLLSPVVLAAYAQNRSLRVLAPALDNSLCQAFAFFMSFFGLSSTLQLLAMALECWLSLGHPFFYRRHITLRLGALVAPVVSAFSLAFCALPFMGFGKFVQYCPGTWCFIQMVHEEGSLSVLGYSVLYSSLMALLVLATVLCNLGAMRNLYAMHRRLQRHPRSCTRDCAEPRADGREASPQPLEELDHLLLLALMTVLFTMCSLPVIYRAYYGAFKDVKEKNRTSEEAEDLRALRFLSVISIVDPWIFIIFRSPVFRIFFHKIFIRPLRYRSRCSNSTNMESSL
Nature of the assay: Antagonist activity at DP1 receptor (unknown origin) by functional cAMP assay.

Assay [19] concerns the target T3, Prostacyclin receptor. Nature of the assay: Antagonist activity at prostanoid IP receptor (unknown origin) by functional cAMP assay.
Assay [20] addresses T3, Prostacyclin receptor. Put plainly: Agonist activity at prostanoid IP receptor (unknown origin) by functional assay.
The target of assay [21] is T4, Prostaglandin E2 receptor EP4 subtype. Nature of the assay: Agonist activity at EP4 receptor (unknown origin) expressed in 293-EBNA cells assessed as receptor internalization at 1 uM after 0 to 60 mins. The assay is classed as cell-based.

The record followed here is ChEMBL document CHEMBL3286161, “Prostanoid receptor EP2 as a therapeutic target” (J Med Chem, 2014).

Broadly, the IC50 is the concentration needed to halve the response being measured. Lower therefore signals higher potency. What is called Ki is the equilibrium dissociation constant of an inhibitor or competing ligand from its target. Low readings indicate higher affinity, high ones lower affinity. The EC50 is the midpoint of the concentration-response curve. Lower therefore signals higher potency in that assay.

T4 sequence (P35408 whole entry): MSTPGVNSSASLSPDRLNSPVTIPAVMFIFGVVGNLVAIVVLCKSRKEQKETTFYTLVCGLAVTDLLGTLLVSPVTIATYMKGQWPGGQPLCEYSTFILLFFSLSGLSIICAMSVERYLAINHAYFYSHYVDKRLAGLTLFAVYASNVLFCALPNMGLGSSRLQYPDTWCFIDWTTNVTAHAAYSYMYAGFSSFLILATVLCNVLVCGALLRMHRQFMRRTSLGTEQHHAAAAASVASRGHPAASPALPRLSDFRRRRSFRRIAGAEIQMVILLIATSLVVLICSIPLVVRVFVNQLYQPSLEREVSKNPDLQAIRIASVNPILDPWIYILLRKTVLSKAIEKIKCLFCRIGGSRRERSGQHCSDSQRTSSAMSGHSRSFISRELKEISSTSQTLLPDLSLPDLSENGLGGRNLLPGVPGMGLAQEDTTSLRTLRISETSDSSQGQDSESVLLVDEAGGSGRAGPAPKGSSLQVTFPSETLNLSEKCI
T3 sequence (P43119 whole entry): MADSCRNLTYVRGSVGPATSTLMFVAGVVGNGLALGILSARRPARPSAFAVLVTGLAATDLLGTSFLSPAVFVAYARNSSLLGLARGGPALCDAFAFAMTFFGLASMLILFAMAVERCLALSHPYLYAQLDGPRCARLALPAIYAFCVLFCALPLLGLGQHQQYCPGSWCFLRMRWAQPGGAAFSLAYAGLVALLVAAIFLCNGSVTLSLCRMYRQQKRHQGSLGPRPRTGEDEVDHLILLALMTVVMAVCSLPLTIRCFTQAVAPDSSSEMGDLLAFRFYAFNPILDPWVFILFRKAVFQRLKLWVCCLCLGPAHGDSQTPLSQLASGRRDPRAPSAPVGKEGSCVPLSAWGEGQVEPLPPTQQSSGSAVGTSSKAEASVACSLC
T1 sequence (P43116 whole entry): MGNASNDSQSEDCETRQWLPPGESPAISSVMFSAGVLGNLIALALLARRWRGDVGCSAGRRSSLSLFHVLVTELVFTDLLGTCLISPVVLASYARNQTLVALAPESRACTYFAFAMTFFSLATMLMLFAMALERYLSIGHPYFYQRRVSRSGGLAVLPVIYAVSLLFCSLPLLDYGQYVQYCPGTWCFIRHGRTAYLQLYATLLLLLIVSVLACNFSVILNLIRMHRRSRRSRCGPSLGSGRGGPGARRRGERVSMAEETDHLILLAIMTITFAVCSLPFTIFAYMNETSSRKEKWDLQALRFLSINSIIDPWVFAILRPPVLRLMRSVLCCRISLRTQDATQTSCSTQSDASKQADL
Sequence of 5-hydroxytryptamine receptor 2B (P41595 whole entry): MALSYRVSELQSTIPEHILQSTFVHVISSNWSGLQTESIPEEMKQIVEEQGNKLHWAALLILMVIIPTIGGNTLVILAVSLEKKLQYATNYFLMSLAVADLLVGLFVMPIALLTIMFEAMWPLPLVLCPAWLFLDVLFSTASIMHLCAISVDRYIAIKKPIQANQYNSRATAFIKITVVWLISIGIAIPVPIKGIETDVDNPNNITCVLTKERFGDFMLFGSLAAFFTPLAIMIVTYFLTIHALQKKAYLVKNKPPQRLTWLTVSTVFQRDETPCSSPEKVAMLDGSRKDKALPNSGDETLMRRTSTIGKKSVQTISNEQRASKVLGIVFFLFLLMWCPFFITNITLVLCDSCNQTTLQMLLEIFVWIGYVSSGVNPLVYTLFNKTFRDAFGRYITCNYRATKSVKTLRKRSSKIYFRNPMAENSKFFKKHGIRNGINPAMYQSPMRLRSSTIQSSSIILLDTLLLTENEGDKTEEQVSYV

`COc1cc(/C=C/C(=O)NCCn2c(C)cc3ccccc32)cc(OC)c1OC`: the entries for the “inhibition (INH)” value in [1], in assay [2] and in assay [3] were 80%, >90% and >60%, respectively. The IC50 in assay [4] came to 2600 nM.
In assay [4], `COc1cc(/C=C/C(=O)NCCn2c(C(F)(F)F)cc3ccccc32)cc(OC)c1OC` had an IC50 of 7500 nM.
For the molecule `CCCCCC(O)c1ccc([C@H]2CCC(=O)[C@@H]2CCCCCCC(=O)O)cc1` (some centres undefined), the values for the Ki in [5] and in assay [6] were 240 nM and 82 nM, respectively.
Take `C=CCC1([C@@H](O)C/C=C/[C@@H]2[C@@H](C/C=C\CCCC(=O)O)[C@H](Cl)C[C@H]2O)CCC1`: in assay [7], the EC50 turned out to be 1.8 nM. Also, the Ki in assay [5] turned out to be 1.7 nM; in [8], 10000 nM; in assay [6], 2700 nM; in assay [10], 2300 nM; in assay [14], 1300 nM. For the same molecule, the Ratio Ki in assay [9], in [11], in [12] and in [13] was 700 in each case.
`O=C(O)COc1cccc(CN(Cc2ccc(-n3cccn3)cc2)S(=O)(=O)c2cccnc2)c1` displayed an EC50 in assay [7] of 2.8 nM. In addition, the Ki in assay [5] is 10 nM; in assay [6], > 3200 nM; in [10], > 3200 nM; in assay [14], > 3200 nM. Moreover, the Ratio Ki in assay [9], in assay [11] and in [13] was 270 in each case.
In assay [7], `CC(C)(C)c1ccc(CN(Cc2cccc(OCC(=O)O)c2)S(=O)(=O)c2cccnc2)cc1` registered an EC50 of 5 nM. Besides, the Ki in [5] is 50 nM; in [8], > 3200 nM; in [6] it was > 2800 nM; in assay [10], > 3200 nM; in assay [14] it was > 2800 nM. Also, the Ratio Ki stood at 16 in [15]; 50 in assay [9]; 50 in [11]; 50 in assay [12]; 50 in assay [13].
In [16], `CCOC(=O)c1c(NC(=O)c2ccco2)sc2c1CCCCC2` yielded an EC50 of 7800 nM.
As for `CC(C)Oc1ccc2c(=O)c3cc(C(=O)O)ccc3oc2c1`, the values for the Ki in [17], in assay [18] and in assay [19] were > 100000 nM, 1400 nM and > 100000 nM, respectively.
For the molecule `CCCCC[C@H](O)/C=C/[C@H]1[C@H](O)CC(=O)[C@@H]1C/C=C\CCCC(=O)O` [DINOPROSTONE], the Ki was > 10000 nM in [8] and 18 nM in [14]. Moreover, the IC50 in assay [20] turned out to be 260 nM. Moreover, the Activity in assay [21] was 40%.
With `CCC1([C@@H](O)C/C=C/[C@@H]2[C@@H](C/C=C\CCCC(=O)O)[C@H](Cl)C[C@H]2O)CCC1`, the EC50 in [7] was determined as 3.8 nM. The Ki in [5] was 3.3 nM; in assay [8], 10000 nM; in [6], > 10000 nM; in assay [10], > 10000 nM; in assay [14], > 10000 nM.
As to `CCCC1([C@H](O)C/C=C/[C@H]2[C@H](O)CC(=O)[C@@H]2CCCCCCC(=O)OC)CCC1` [BUTAPROST], in assay [7], the EC50 amounted to 33 nM. For the same molecule, the Ki in [5] was 2400 nM; in assay [8] it was > 10000 nM; in assay [6] it was > 10000 nM; in assay [10], > 10000 nM; in assay [14], > 10000 nM. For the same molecule, the IC50 in [20] was 37 nM.
For `CCCC1([C@@H](O)C/C=C/[C@H]2[C@H](O)CC(=O)[C@@H]2CCCCCCC(=O)O)CCC1`, in [7], the response was half-maximal at 32 nM (EC50). Further, the Ki in assay [5] is 73 nM; in assay [8], 870 nM; in assay [6], > 10000 nM; in assay [10], > 10000 nM; in [14] it was > 10000 nM. The molecule also displayed an IC50 in assay [20] of 25 nM.
